From patent US7084239B1, “Cancer peptides of NY-ESO-1/CAG-3” (The United States of America as represented by the …, priority 1997, dated 2006)

Test system: TIL1244
Assay: T cell recognition of peptide-pulsed 586EBV B cells by TIL1244
Format: cell-based, human
Conditions: peptide pulsed onto 586EBV B cells (FIG. 6)
Excerpt: FIGS. 6A–6H. CTL clones 2 and 14 recognize the NY-ESO-1 gene, but not the ESO10-53 peptide derived from the NY-ESO-1 protein. CTL clones 2, 14 and 5 recognized NY-ESO-1 when cotransfected with HLA-A31 cDNA into COS-7 (FIG. 6A, C, E and G). TIL1244, which recognized TRP-2 But not NY-ESO-1, was used as a specificity control. FIGS. 6B, D, F and H. CTL clones 2, 5, 14, and TIL1244 recognized 586mel. […] TIL1244 recognized the TRP197-205 peptide derived from TRP-2, 586EBV B cells alone or pulsed with the ORF3P peptide from an alternative reading frame of TRP1 were negative controls. 397mel is an HLA-A31-negative, NY-ESO-1-positive tumor line.
DNA transfection and GM-CSF assay were done as previously described (Wang, R. F., P. F. Robbins, Y. Kawakami, X. Q. Kang, and S. A. Rosenberg, 1995, J. Exp. Med. 181:799–804). Briefly, […] of DNA carrying a different fragment and 50 ng of the HLA-A31 DNA were mixed with 2 μl of lipofectamine in 100 μl of serum-free DMEM for 15–45 min. The DNA/lipofectamine mixture was then added to the COS-7 (5×10^4) cells and incubated overnight. The following day, cells were washed twice with DMEM medium. […] After 18–24 h incubation, 100 μl of supernatant was collected and GM-CSF was measured in a standard ELISA assay (R+D Systems, Minneapolis, Minn.). […]

TRP197-205: peptide derived from TRP-2, recognized by TIL1244; specificity control (LLGPGRPYR; UniProt P40126 197-205, looked up, fragment)
Recognition by TIL1244, in words: recognized
